From patent publication US12018021B2 (UCB Biopharma SRL, priority 2018, dated 2024) come the findings set out here.

In this assay the target is IgE-Tb / sFcεRIα-Y131A-AF488 (Homo sapiens, UniProt P01854, N146Q/N252Q). Nature of the assay: IgE-Tb / sFcεRIα-Y131A-AF488 FRET assay (protocol for examples 234 to 501). Conditions: examples 234 to 501: compound with IgE-Tb 30 minutes before sFcεRIα-Y131A-AF488, incubated 18 hours at room temperature; read-out: Y131A FRET IC50 range. Format: binding. The protocol: For examples 234 to 501, the assay was conducted according to the following: Each assay reaction was conducted in a volume of 25 μl in a 384-well half-volume plate. 10 point compound serial dilutions (3-fold) were generated in DMSO at a concentration of ×50 that of the final assay concentration (FAC). Compound solutions were then prepared by diluting 10-fold in assay buffer. For the assay, 5l of diluted compound was added to 10 μl of IgE-Tb and incubated for 30 minutes before the addition of 10 μ[…]. FRET reagents FACs were 5 nM IgE-Tb, 25 nM […]. Usually the top FAC of compound in the assay was 10 μM. The final DMSO concentration was 2%. […] The maximum FRET signal (MAX) was measured in wells containing FRET reagents but no compound. The assay was incubated for 18 hours at room temperature, protected from light and evaporation, and with gentle agitation. Measurement of FRET for each well was carried out by exciting at 337 nm and measuring emission at 490/520 nm using a PHERAstar FSX plate reader (BMG Labtech). FRET ratio was calculated as follows: Emission at 520/7Emission at 490×1000. The FRET ratio was used for the data analysis. […] Z' above 0.5 was considered a good assay. Background signal (MIN) was subtracted from all wells. […] Percent inhibition was plotted against compound concentration. IC50 values for each compound were determined using four parameter logistic fit model using the XLFIT5 software package.
Chain of IgE-Tb / sFcεRIα-Y131A-AF488 (P01854 whole entry N146Q/N252Q): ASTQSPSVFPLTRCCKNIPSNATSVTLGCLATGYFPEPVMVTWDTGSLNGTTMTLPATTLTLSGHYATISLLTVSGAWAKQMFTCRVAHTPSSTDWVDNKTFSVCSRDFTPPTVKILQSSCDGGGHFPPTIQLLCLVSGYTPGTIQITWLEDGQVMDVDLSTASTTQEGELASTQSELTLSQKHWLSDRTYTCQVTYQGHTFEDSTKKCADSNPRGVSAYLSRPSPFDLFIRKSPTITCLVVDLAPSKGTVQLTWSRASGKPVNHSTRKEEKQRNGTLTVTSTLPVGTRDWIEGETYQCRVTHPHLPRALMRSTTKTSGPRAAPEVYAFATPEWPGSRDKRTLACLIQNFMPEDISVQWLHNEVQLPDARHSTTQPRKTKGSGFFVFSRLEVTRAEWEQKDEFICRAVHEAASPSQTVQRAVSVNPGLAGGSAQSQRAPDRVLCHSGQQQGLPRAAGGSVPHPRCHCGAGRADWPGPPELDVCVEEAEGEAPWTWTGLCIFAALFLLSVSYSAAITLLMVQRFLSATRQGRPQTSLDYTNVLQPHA
Consider `Cn1nc(OC(F)F)cc1Nc1nncn1[C@H]1CCc2sc(NC(=O)C3CC3)c(C(=O)NC[C@H]3C[C@H]3F)c2C1` (mixture of isomers) [Example 454, (5S)-2-(cyclopropanecarbonylamino)-5-[3-[[5-(difluoromethoxy)-2-methylpyrazol-3-yl]amino]-1,2,4-triazol-4-yl]-N-[[(1RS,2RS)-2-fluorocyclopropyl]methyl]-4,5,6,7-tetrahydro-1-benzothiophene-3-carboxamide], for which the IC50 (as a rule, the concentration needed to halve the response being measured) is less than 1000 nM.
In the case of `Cn1nc(OC(F)F)cc1Nc1nncn1[C@H]1CCc2sc(NC(=O)C3CC3)c(C(=O)NCC3CC3(F)F)c2C1` (mixture of isomers) [Example 458, (5S)-2-(cyclopropanecarbonylamino)-N-[(2,2-difluorocyclopropyl)methyl]-5-[3-[[5-(difluoromethoxy)-2-methylpyrazol-3-yl]amino]-1,2,4-triazol-4-yl]-4,5,6,7-tetrahydro-1-benzothiophene-3-carboxamide] it was less than 1000 nM; in that of `Cn1nc(C(F)F)cc1Nc1nncn1[C@H]1CCc2sc(NC(=O)C3CC3(F)F)c(C(=O)N[C@H]3C[C@H](F)C3)c2C1` (mixture of isomers) [Example 493, (5S)-2-[(2,2-difluorocyclopropanecarbonyl)amino]-5-[3-[[5-(difluoromethyl)-2-methyl-pyrazol-3-yl]amino]-1,2,4-triazol-4-yl]-N-(trans-3-fluorocyclobutyl)-4,5,6,7-tetrahydrobenzothiophene-3-carboxamide], less than 1000 nM.
Next, `Cn1nc(C(F)F)cc1Nc1nncn1[C@H]1CCc2sc(NC(=O)C3CC3)c(C(=O)NC3CC34CC4)c2C1` (mixture of isomers) [Example 494, (5S)-2-cyclopropaneamido-5-(3-{[3-(difluoromethyl)-1-methyl-1H-pyrazol-5-yl]amino}-4H-1,2,4-triazol-4-yl)-N-{spiro[2.2]pentan-1-yl}-4,5,6,7-tetrahydro-1-benzothiophene-3-carboxamide]: less than 1000 nM; `Cn1nc(C(F)F)cc1Nc1nncn1[C@H]1CCc2sc(NC(=O)[C@@H]3C[C@H]3F)c(C(=O)NCC3CC3)c2C1` (racemic) [Example 366, (5S)—N-(cyclopropylmethyl)-5-[3-[[5-(difluoromethyl)-2-methylpyrazol-3-yl]amino]-1,2,4-triazol-4-yl]-2-[[(1RS,2SR)-2-fluorocyclopropanecarbonyl]amino]-4,5,6,7-tetrahydro-1-benzothiophene-3-carboxamide]: less than 1000 nM; `C[C@H]1c2c(sc(NC(=O)C3CC3)c2C(=O)NCC2CC2)CC[C@@H]1n1cnnc1Nc1cc(C(F)(F)F)nn1C` (racemic) [Example 421, (4RS,5RS)-2-(cyclopropanecarbonylamino)-N-(cyclopropylmethyl)-4-methyl-5-[3-[[2-methyl-5-(trifluoromethyl)pyrazol-3-yl]amino]-1,2,4-triazol-4-yl]-4,5,6,7-tetrahydrobenzothiophene-3-carboxamide]: less than 1000 nM.
For `Cn1nc(C(F)F)cc1Nc1nncn1[C@H]1CCc2sc(NC(=O)C3CC3)c(C(=O)NC[C@H]3C[C@H](F)C3)c2C1` (racemic) [Example 497, (5S)-2-(cyclopropanecarbonylamino)-5-[3-[[5-(difluoromethyl)-2-methyl-pyrazol-3-yl]amino]-1,2,4-triazol-4-yl]-N-[(3-fluorocyclobutyl)methyl]-4,5,6,7-tetrahydrobenzothiophene-3-carboxamide], the IC50 was less than 1000 nM.
In the case of `C[C@H]1CCCN1C(=O)c1ncn([C@H]2CCc3sc(NC(=O)[C@H]4C[C@H]4F)c(C(=O)NCC4CC4)c3C2)c1N` (relative stereo) [Example 259, (5S)-5-[5-amino-4-[(2S)-2-methylpyrrolidine-1-carbonyl]imidazol-1-yl]-N-(cyclopropylmethyl)-2-[[(1R*,2R*)-2-fluorocyclopropanecarbonyl]amino]-4,5,6,7-tetrahydrobenzothiophene-3-carboxamide] it was less than 1000 nM; in that of `Cn1nc(C(F)F)cc1Nc1nncn1[C@H]1CCc2sc(NC(=O)[C@@H]3CC3(F)F)c(C(=O)NC[C@@H]3C[C@@H]3F)c2C1` (relative stereo) [Example 284, (5S)-2-[[(1S*)-2,2-difluorocyclopropanecarbonyl]amino]-5-[3-[[5-(difluoromethyl)-2-methyl-pyrazol-3-yl]amino]-1,2,4-triazol-4-yl]-N-[[(1S,2S)-2-fluorocyclopropyl]methyl]-4,5,6,7-tetrahydrobenzothiophene-3-carboxamide [* or R]], less than 1000 nM; in that of `O=C(NCC1CC1)c1c(NC(=O)C2CC2)sc2c1C[C@@H](n1cnnc1N[C@H]1CN(C(=O)c3ccccc3)CC1(F)F)CC2` (relative stereo) [Example 285, (5S)-5-[3-[[(3S*)-1-benzoyl-4,4-difluoro-pyrrolidin-3-yl]amino]-1,2,4-triazol-4-yl]-2-(cyclopropanecarbonylamino)-N-(cyclopropylmethyl)-4,5,6,7-tetrahydrobenzothiophene-3-carboxamide [* or R]], less than 1000 nM.
Next, `Cn1nc(C(F)F)cc1Nc1nncn1[C@H]1CCc2sc(NC(=O)[C@@H]3CC34CC4)c(C(=O)NCC3CC3)c2C1` (relative stereo) [Example 311, (5S)—N-(cyclopropylmethyl)-5-[3-[[5-(difluoromethyl)-2-methyl-pyrazol-3-yl]amino]-1,2,4-triazol-4-yl]-2-[[(2R*)-spiro[2.2]pentane-2-carbonyl]amino]-4,5,6,7-tetrahydrobenzothiophene-3-carboxamide [* or S]]: less than 1000 nM; `Cn1nc(OC(F)F)cc1Nc1nncn1[C@H]1CCc2sc(NC(=O)[C@H]3CC3(F)F)c(C(=O)NCC3CC3)c2C1` (relative stereo) [Example 345, (5S)—N-(cyclopropylmethyl)-2-[[(1R*)-2,2-difluorocyclopropanecarbonyl]amino]-5-[3-[[5-(difluoromethoxy)-2-methylpyrazol-3-yl]amino]-1,2,4-triazol-4-yl]-4,5,6,7-tetrahydro-1-benzothiophene-3-carboxamide (* or S)]: less than 1000 nM.
In the case of `Cn1nc(C(F)F)cc1Nc1nncn1[C@H]1CCc2sc(NC(=O)[C@@H]3CC3(F)F)c(C(=O)NCC3CC3)c2C1` (relative stereo) [Example 365, (5S)—N-(cyclopropylmethyl)-2-[[(1R*)-2,2-difluorocyclopropanecarbonyl]amino]-5-[3-[[5-(difluoromethyl)-2-methylpyrazol-3-yl]amino]-1,2,4-triazol-4-yl]-4,5,6,7-tetrahydro-1-benzothiophene-3-carboxamide (* or S)] it was less than 1000 nM; in that of `C[C@@H]1C[C@H]1C(=O)Nc1sc2c(c1C(=O)NCC1CC1)C[C@@H](n1cnnc1Nc1cc(C(F)F)nn1C)CC2` (relative stereo) [Example 370, (5S)—N-(cyclopropylmethyl)-5-[3-[[5-(difluoromethyl)-2-methylpyrazol-3-yl]amino]-1,2,4-triazol-4-yl]-2-[[(1R*,2R*)-2-methylcyclopropanecarbonyl]amino]-4,5,6,7-tetrahydro-1-benzothiophene-3-carboxamide (* or S)], less than 1000 nM; in that of `C[C@H]1C[C@H]1C(=O)Nc1sc2c(c1C(=O)NCC1CC1)C[C@@H](n1cnnc1Nc1cc(C(F)F)nn1C)CC2` (relative stereo) [Example 371, (5S)—N-(cyclopropylmethyl)-5-[3-[[5-(difluoromethyl)-2-methylpyrazol-3-yl]amino]-1,2,4-triazol-4-yl]-2-[[(1R*,2S*)-2-methylcyclopropanecarbonyl]amino]-4,5,6,7-tetrahydro-1-benzothiophene-3-carboxamide (*1R,2S or 1S,2R)], less than 1000 nM.
As for `Cn1nc(C(F)F)cc1Nc1nncn1[C@H]1CCc2sc(NC(=O)C3CC3)c(C(=O)NC[C@@H]3CC3(C)C)c2C1` (relative stereo) [Example 372, (5S)-2-(cyclopropanecarbonylamino)-5-[3-[[5-(difluoromethyl)-2-methylpyrazol-3-yl]amino]-1,2,4-triazol-4-yl]-N-[[(1R*)-2,2-dimethylcyclopropyl]methyl]-4,5,6,7-tetrahydro-1-benzothiophene-3-carboxamide (* or S)], the IC50 is less than 1000 nM.
As to `Cn1nc(OC(F)F)cc1Nc1nncn1[C@H]1CCc2sc(NC(=O)[C@H]3C[C@@H]3F)c(C(=O)N[C@H]3CC34CC4)c2C1` (relative stereo) [Example 376, (5S)-5-[3-[[5-(difluoromethoxy)-2-methylpyrazol-3-yl]amino]-1,2,4-triazol-4-yl]-2-[[(1R,2S)-2-fluorocyclopropanecarbonyl]amino]-N-[(2R*)-spiro[2.2]pentan-2-yl]-4,5,6,7-tetrahydro-1-benzothiophene-3-carboxamide (* or S)], the IC50 is less than 1000 nM.
Next, `COc1cc(Nc2nncn2[C@H]2CCc3sc(NC(=O)[C@@H]4CC45CC5)c(C(=O)NCC4CC4)c3C2)n(C)n1` (relative stereo) [Example 455, (5S)—N-(cyclopropylmethyl)-5-[3-[(5-methoxy-2-methyl-pyrazol-3-yl)amino]-1,2,4-triazo-4-yl]-2-[[(2R*)-spiro[2.2]pentane-2-carbonyl]amino]-4,5,6,7-tetrahydrobenzothiophene-3-carboxamide (* or S)]: less than 1000 nM.
